Laboratory results from US20120172598A1, “COMPOUNDS HAVING TAFIa INHIBITORY ACTIVITY” (TAISHO PHARMACEUTICAL CO., LTD., priority 2009, published 2012).
pIC50: −log10 of the molar value. Where a name gives a salt, the structure may show the parent alone.

Target: T1, TAFIa (Homo sapiens, UniProt Q96IY4)
T1 construct: purchased Enzyme Research Laboratories
T1 sequence (Q96IY4 115-423): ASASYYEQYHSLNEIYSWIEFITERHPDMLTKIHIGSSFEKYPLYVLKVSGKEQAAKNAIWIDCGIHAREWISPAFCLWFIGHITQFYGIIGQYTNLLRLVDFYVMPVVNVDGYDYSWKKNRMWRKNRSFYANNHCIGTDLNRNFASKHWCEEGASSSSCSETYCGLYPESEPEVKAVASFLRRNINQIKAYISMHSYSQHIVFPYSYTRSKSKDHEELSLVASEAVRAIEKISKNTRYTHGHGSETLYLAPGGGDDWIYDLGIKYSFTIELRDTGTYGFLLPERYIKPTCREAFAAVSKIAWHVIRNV
Experiment: TAFIa inhibition test (Hip-Arg substrate, absorbance at 405 nm)
Assay type: biochemical
Details: TAFI activated with thrombin/thrombomodulin, 40 minutes at room temperature, read-out: TAFIa inhibitory activity IC50
Experimental: Test 1 [TAFIa Inhibition Test]
Compounds of the present invention were measured for their TAFIa inhibitory activity as follows based on the method described in Thromb. Haemost. 79, 371-377 (1998).
(a) Preparation of TAFIa Solution
To 450 μl of TAFI (the product of Enzyme Research Laboratories whose concentration was adjusted to 18 μg/ml with buffer A: 100 mM Tris-HCl, pH 7.4), 45 μl of a thrombomodulin solution (a rabbit lung derived thrombomodulin produced by American Diagnostica whose concentration was adjusted to 1 μg/ml with buffer B: 50 mM Tris-HCl, pH 7.5, containing 0.15 M NaCl) and 45 μl of a thrombin solution (a freeze-dried human plasma derived thrombin produced by Sigma and dissolved in water to have a concentration of 30 μU/ml) were added and the mixture was left to stand at room temperature for 25 minutes.
(b) Method of Measuring TAFIa Inhibitory Activity […]
Subsequently, a color former (1% cyanuric chloride in 1,4-dioxane) was added in an amount of 50 μl to each well and the plate was left to stand for 3 minutes at room temperature, then absorbance at 405 nm was measured with a microplate reader (Spectramax M2 of Molecular Devices). […]
For two compounds of the present invention, the above test was conducted and on the basis of the results of measurements, TAFIa inhibitory activity was calculated to give the results shown in Table 2.

pIC50	Structure (SMILES)
7.44	N[C@H]1CCN([C@@H](Cc2ncn3c2CCc2ccccc2-3)C(=O)O)C1 [Compound 1, (2S)-2-[(3S)-3-aminopyrrolidin-1-yl]-3-(4,5-dihydroimidazo[1,5-a]quinolin-3-yl)propanoic acid trihydrochloride]
7.64	Cc1ccc2c(c1)CCc1c(C[C@@H](C(=O)O)N3CC[C@H](N)C3)ncn1-2 [Compound 2, (2S)-2-[(3S)-3-aminopyrrolidin-1-yl]-3-(7-methyl-4,5-dihydroimidazo[1,5-a]quinolin-3-yl)propanoic acid trihydrochloride]
